Measurements taken from PubChem BioAssay AID179 (DTP/NCI, 2004).
Calls of active or inactive are those of the source.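 The calls were made as follows: active = compounds giving half or more protection of infected cells from virus-caused growth loss, again on retest; inactive = the rest.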

Tested on: CEM cells HIV-1 protection, formazan growth assay
Assay: NCI AIDS Antiviral Assay
Conditions: for IC50: measured here: growth of uninfected CEM cells
Description: The ability of compounds to protect human CEM cells from HIV-1 infection is measured as a screen for new compounds capable of inhibiting the HIV virus. Five concentrations of drug were tested on uninfected and infected cells and cell growth was measured using a soluble formazan assay. […] Compounds that provided at least 50% protection were retested. Compounds that provided at least 50% protection on retest were listed as moderately active. Compounds that reproducibly provided 100% protection were listed as confirmed active. […] Note that the inability to provide protection could be due to toxicity.

Structure (SMILES) | EC50 | IC50 | outcome
O=c1[nH]nc(Cc2ccccc2)n1C1CCCC1 | > 200 µM | > 200 µM | 
Cc1ccc(NC(=O)C(=O)C(C(=O)/C=C/c2ccccc2)C2OC(=O)c3ccccc32)c(C)c1 (stereo not given) | > 427 µM | 63.1 µM | 
CC(=O)NC1C(OC2C(CO)OC(OCC3OC(n4ccc(N)nc4=O)C(O)C3O)C(NC(C)=O)C2O)OC(CO)C(O)C1O (stereo not given) | > 200 µM | 11.2 µM | 
CC1C(=O)C2CC3(C)CO[C@@]2(C3O)[C@@]2(C)CC[C@@H]12 (stereo not given in full) |  |  | inactive
CCCCCCCCCc1cc(O)c(O)cc1CCCCCCCCC | > 100 µM | 47.9 µM | 
O=C(CC(=O)Nc1ccccc1F)N/N=C/c1ccccc1 |  |  | inactive
C=C1c2nc3ccccc3n2C=C(c2ccc(C)cc2)N1c1ccc(C)cc1 | > 200 µM | 26.9 µM | 
COc1ccc(C2CCC(=O)CC2(O)C(=O)O)cc1 (stereo not given) | > 251 µM | > 251 µM | 
COc1ccc(NC(=O)CC(=O)N2N=C(N3CCCCC3)CC2c2ccccc2)cc1 (stereo not given) | > 200 µM | > 200 µM | 
CN(C)N=Nc1ccc(/C=C2/C=Cc3ccccc32)cc1 | > 49 µM | > 49 µM | 
COc1ccc(-c2cc(C)n(C3OC(CO)C(O)C(O)C3O)c(=S)c2C#N)cc1 (stereo not given) | > 200 µM | 126 µM | 
C[C@@H]1[C@@H](c2ccccc2)C12C(=O)NC(=O)NC2=O | > 200 µM | > 200 µM | 
Nc1ccc2c(c1)S(=O)(=O)c1cc(N)ccc1-2 | > 200 µM | > 200 µM | 
O=c1c2c3c(sc2nc2n1N=CN(c1ccc(Cl)cc1)C2)CCCC3 | > 200 µM | 38 µM | 
Cc1cccc(C)c1NC(=O)C1C(=O)N(c2c(C)cccc2C)C(=O)/C1=N\N (stereo not given) |  |  | inactive
O=C(Cn1cc(I)c(C(=O)NCC(O)CO)n1)NCC(O)CO (stereo not given) | > 562 µM | > 562 µM | 
CCN(CC)CCCNc1nccc2c(C)c3c(cc12)c1cnccc1n3C |  |  | inactive
CCCc1cc(=O)oc2c3c(c4c(c12)OC(C)(C)CC4)O[C@H](C)C(C)[C@@H]3O (stereo not given in full) | > 200 µM | 162 µM | 
Nc1nc(O)c(N=O)c(=O)[nH]1 | > 200 µM | > 200 µM | 
CCOC(=O)CCSS(=O)(=O)c1ccccc1 | > 200 µM | 35.5 µM | 
CCOc1cc(C=Nc2ccc(Oc3ccc(Cl)cc3)c(Cl)c2)ccc1O | > 200 µM | 29.5 µM | 

Structure (SMILES) | EC50 | IC50 | outcome
Cc1cn(C2CC(S(=O)c3ccccc3)C(CO)O2)c(=O)[nH]c1=O (stereo not given) | > 200 µM | > 200 µM | 
CCN(CC)C1=C(N(CC)CC)C(N(CC)CC)=C(N(CC)CC)C1=O.[C-]#[O+].[C-]#[O+].[C-]#[O+].[Fe] | > 2.88 µM | > 2.88 µM | 
CCN=C(NC(=O)c1ccc(Cl)cc1)SCSC(=NCC)NC(=O)c1ccc(Cl)cc1 | > 200 µM | 72.4 µM | 
COC(=O)C12c3[nH]c4ccccc4c3CCN1CC(=O)C2C(=O)OCc1ccccc1 (stereo not given) | > 91.2 µM | 57.5 µM | 
O=C(O)/C=C/C(=O)Nc1ccccc1-n1cccc1 | > 200 µM | > 200 µM | 
Cc1[nH]c(=O)[nH]c(=O)c1/C=C/C(=O)NC(CO)CS(=O)Cc1ccccc1 (stereo not given) | > 200 µM | > 200 µM | 
Cc1nn2c(=O)c([N+](=O)[O-])c(/C=C/c3ccccc3)nc2s1 | > 200 µM | 3.31 µM | 
CCc1ccccc1NC(=O)C1=C(C)NC(C)=C(C(=O)Nc2ccccc2CC)C1c1ccccc1Cl | > 10 µM | > 10 µM | 
CC(Cl)CC(=O)OCC1CCCN2CCCCC12 (stereo not given) | > 200 µM | > 200 µM | 
O=C(N/C(=C\c1cc(Cl)ccc1Cl)c1nc2[nH]c(=S)[nH]c(=O)c2[nH]1)c1ccccc1 | > 79.4 µM | 21.9 µM | 
N#Cc1cccc(N2C(=O)c3ccc(C(=O)c4ccc5c(c4)C(=O)N(c4cccc(C#N)c4)C5=O)cc3C2=O)c1 | > 7.24 µM | > 7.24 µM | 
C/C(=C\c1ccccc1)C(O)C(=O)c1nc2ccc([N+](=O)[O-])cc2[nH]c1=O (stereo not given) |  |  | inactive
CSC(SC)=C(C#N)C(=O)Nc1ccc(C)cc1 | > 200 µM | 3.63 µM | 
C=C(NC(=O)C(=C)NC(=O)c1csc(C2=NC3c4csc(n4)C4NC(=O)c5csc(n5)C(C(C)(O)C(C)O)NC(=O)C5CSC(=N5)/C(=C/C)NC(=O)C(C(C)O)NC(=O)c5csc(n5)C3(CC2)NC(=O)C(C)NC(=O)C(=C)NC(=O)C(C)NC(=O)C(C(C)CC)NC2C=Cc3c(C(C)O)cc(nc3C2O)C(=O)OC4C)n1)C(N)=O (stereo not given) | 8.91 µM | 43.7 µM | 
COc1c(C)c2c(c(C)c1Cl)Oc1c(C=O)c(O)c(Cl)c(C)c1C(=O)O2 | > 18.2 µM | > 18.2 µM | 
O=C1OC(c2ccccc2)=N/C1=C\c1ccc(Oc2ccc(Cl)c(Cl)c2)cc1 | > 2.51 µM | > 2.51 µM | 
CC(=O)C(=Cc1ccc([N+](=O)[O-])cc1)C(C)=O | > 155 µM | 27.5 µM | 
CC1(C2=CCCCC2)CCC(=O)NC1=O (stereo not given) | > 200 µM | > 200 µM | 
Cc1ccc(S(=O)(=O)NCCSCCNS(=O)(=O)c2ccc(C)cc2)cc1 | > 575 µM | > 575 µM | 
COc1ccc(C2=CC3CCC2C3)cc1 (stereo not given) |  |  | inactive
CCCC(=O)Nc1cc(/C=C/C(=O)N2CC(CCl)c3c2cc([N+](=O)[O-])c2ccccc32)n(C)c1 (stereo not given) | > 2 µM | 0.794 µM | 

Structure (SMILES) | EC50 | IC50 | outcome
N#CCC(O)CC#N |  |  | inactive
CCOC(=O)C1Nc2ccccc2[C@H]2OCC[C@@H]12 (stereo not given in full) | > 525 µM | > 525 µM | 
O=Nc1c(N=O)c(N=O)c(N=O)c(N=O)c1N=O | > 20 µM | 2.34 µM | 
COC(=O)Nc1cn2c(n1)sc1ccccc12 | > 200 µM | 15.8 µM | 
CSC1=C(c2ccc(Cl)cc2)SC(N2CCCCC2)N1c1ccc([N+](=O)[O-])cc1 (stereo not given) | > 200 µM | 97.7 µM | 
Cn1c2ccccc2c2ccc3c(c21)C(=O)C(c1ccccc1)=CC3=O | > 40.7 µM | 29.5 µM | 
Cc1cc(CS(=O)(=O)/C=C/c2ccccc2[N+](=O)[O-])c(CS(=O)(=O)/C=C/c2ccccc2[N+](=O)[O-])cc1C | > 11.5 µM | > 11.5 µM | 
NCCCCC(NC(=O)C(Cc1cnc[nH]1)NC(=O)CN)C(=O)O.[Cu+2] (stereo not given) | > 200 µM | 70.8 µM | 
CCOc1ccc(NC(=O)C(=O)C(C(=O)c2ccc3ccccc3c2)C2OC(=O)c3ccccc32)cc1 (stereo not given) | > 52.5 µM | 45.7 µM | 
NC(=O)C(F)(F)C(N)=O | > 200 µM | > 200 µM | 
COc1ccc(/C=C2\SC(=S)NC2=O)cc1 | > 28.8 µM | > 28.8 µM | 
COC(=O)c1ccc(CCc2cc(O)c(Br)cc2O)cc1 | > 200 µM | 10 µM | 
Clc1ccc(Nc2nnc(CCCCCCCCc3nnc(Nc4ccc(Cl)cc4)o3)o2)cc1 | > 200 µM | 45.7 µM | 
COc1cccc(-n2cccc2)c1 | > 200 µM | > 200 µM | 
Cc1c(/C=N/N(C)C)oc2c1cc(O)c1ncccc12 | > 37.2 µM | 2.51 µM | 
S=C1CC(=S)NC(=S)N1 | > 513 µM | > 513 µM | 
COc1cc(Nc2cnc3cc(N)ccc3n2)cc(OC)c1OC | > 200 µM | > 200 µM | 
O=C(O)CCC1CCc2cccc(OCC(=O)O)c2C1=O (stereo not given) |  |  | inactive
C[C@@H]1[C@H](C)N1CC(O)Cn1ccnc1[N+](=O)[O-] (stereo not given in full) | > 200 µM | > 200 µM | 
Fc1cccc2c(=S)cn[nH]c12 | > 200 µM | 186 µM | 
CCC1=CCN(c2cc(C)ccn2)OC1c1ccccc1 (stereo not given) | > 35.5 µM | > 35.5 µM | 

Structure (SMILES) | EC50 | IC50 | outcome
O=c1c2c3c(sc2nc2n1N=CN(c1ccccc1)C2)CCCC3 | > 200 µM | > 200 µM | 
OCCN(CCO)c1ccc2c(C(F)(F)F)cc(C(F)(F)F)nc2n1 | > 200 µM | 148 µM | 
O=C(c1cccs1)N(C(=O)N1CCCCC1)c1ccccc1 | > 200 µM | 112 µM | 
FC(F)(F)c1ccc(C2=N/S(c3ccccc3)=N\C(c3ccc(C(F)(F)F)cc3)=N/S(c3ccccc3)=N\2)cc1 (stereo not given) | > 50.1 µM | > 50.1 µM | 
C[C@]12CC[C@H](CCC=C(c3cc(Cl)c(O)c(C(=O)O)c3)c3cc(Cl)c(O)c(C(=O)O)c3)C[C@@H]1CC[C@@H]1[C@@H]2CC[C@]2(C)[C@@H](CCC=C(c3cc(Cl)c(O)c(C(=O)O)c3)c3cc(Cl)c(O)c(C(=O)O)c3)CC[C@@H]12 | 6.61 µM | 110 µM | 
CCc1ccc(Nc2ccc([N+](=O)[O-])cc2[N+](=O)[O-])cc1 |  |  | inactive
NC(CSCc1ccccc1)C(=O)O (stereo not given) | > 224 µM | > 224 µM | 
CO/C(=N\Nc1ccc([N+](=O)[O-])cc1)P(=O)(OC(C)C)OC(C)C | > 12.9 µM | > 12.9 µM | 
C=C(CC)C[C@@H]1C[C@]2(C(=O)OC)c3[nH]c4ccccc4c3CCN2C1=O | > 200 µM | 36.3 µM | 
CCOC(=O)CCCc1cc(=O)c2c(C)c3[nH]c4ccc(Cl)cc4c3c(C)c2[nH]1 | > 200 µM | 34.7 µM | 
COc1ccc(CC2c3cc(OC)c(OC)c(OC)c3CC[N+]2(C)C)cc1Oc1ccc(CC2c3cc4c(c(OC)c3CCN2C)OCO4)cc1 (stereo not given) |  |  | inactive
O=C(c1ccccc1)C(O)(Cc1ccccc1)c1ccccc1 (stereo not given) | > 85.1 µM | 70.8 µM | 
O=Cc1ccc(-c2ccc(-c3ccc(C=O)s3)o2)s1 |  |  | inactive
CCCCOC(=O)NC(Nc1ccc(S(=O)(=O)Nc2ccc(OC)nn2)cc1)(C(F)(F)F)C(F)(F)F | > 200 µM | > 200 µM | 
CC(C)N(C(C)C)[PH+]1O[PH+](N(C(C)C)C(C)C)O[PH+](N(C(C)C)C(C)C)O[PH+](N(C(C)C)C(C)C)O1.[C-]#[O+].[C-]#[O+].[C-]#[O+].[C-]#[O+].[C-]#[O+].[C-]#[O+].[C-]#[O+].[C-]#[O+].[Mo].[Mo] (stereo not given) | > 35.5 µM | > 35.5 µM | 
CCOc1ccc(C2(C)OC(=O)C3CCCCC32)c2ccccc12 (stereo not given) |  |  | inactive
CCN(CC)CCCn1c(=O)c2cccnc2n2c3c(=O)n(C)c(=O)n(C)c3nc12 | 25.1 µM | 126 µM | 
COC1/C=C/OC2(C)Oc3c(C)c(O)c4c(O)c(c(C5SCCS5)c(O)c4c3C2=O)NC(=O)/C(C)=C\C=C\C(C)C(O)C(C)C(O)C(C)C(O)C1C (stereo not given) | > 200 µM | 1 µM | 
